Values joined by “and” are separate entries in the source; they are usually repeats but may differ in a detail not shown here. Identical values can stand only once. Like-named read-outs stand apart in the source and are kept apart here.
Columns and labels:
468 kinases = tested on: 468 kinases; set-up: KINOMEScan: unit not given here; details: cited from earlier work; for KINOMEScan: published data
ACAD11 = target: T1, ACAD11 (Homo sapiens, UniProt Q709F0); assay: Kinobeads two-dose competition binding: ACAD11; details: read-out: Lestaurtinib Drugmatrix value, Gene Name ACAD11
T1 construct: endogenous in cells
T1 sequence (Q709F0 1-780): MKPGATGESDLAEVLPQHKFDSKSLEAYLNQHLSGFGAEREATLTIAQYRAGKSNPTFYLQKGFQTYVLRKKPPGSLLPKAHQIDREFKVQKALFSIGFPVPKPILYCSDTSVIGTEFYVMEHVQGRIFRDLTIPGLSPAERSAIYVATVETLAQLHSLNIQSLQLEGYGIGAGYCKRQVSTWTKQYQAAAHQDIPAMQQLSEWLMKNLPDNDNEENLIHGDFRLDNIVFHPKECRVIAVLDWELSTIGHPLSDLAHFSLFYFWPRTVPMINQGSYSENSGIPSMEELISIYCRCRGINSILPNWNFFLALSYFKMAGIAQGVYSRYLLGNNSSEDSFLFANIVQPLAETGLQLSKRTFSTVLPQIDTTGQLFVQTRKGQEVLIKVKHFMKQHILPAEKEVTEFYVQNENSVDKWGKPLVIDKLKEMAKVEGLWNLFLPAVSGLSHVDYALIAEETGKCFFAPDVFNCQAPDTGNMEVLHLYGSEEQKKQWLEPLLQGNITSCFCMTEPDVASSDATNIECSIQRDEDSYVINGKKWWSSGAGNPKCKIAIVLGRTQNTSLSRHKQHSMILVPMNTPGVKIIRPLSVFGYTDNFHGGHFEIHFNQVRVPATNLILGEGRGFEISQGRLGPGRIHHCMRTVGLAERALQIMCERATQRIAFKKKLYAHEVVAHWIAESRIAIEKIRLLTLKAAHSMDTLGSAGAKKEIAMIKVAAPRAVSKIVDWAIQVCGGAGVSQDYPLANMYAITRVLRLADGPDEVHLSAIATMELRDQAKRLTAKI

EPHB4 = target: T2, EPHB4 (Homo sapiens, UniProt P54760); assay: Kinobeads two-dose competition binding: EPHB4; details: read-out: Lestaurtinib Drugmatrix value, Gene Name EPHB4; target EPHB4; each column = one Lestaurtinib control replicate (batch_R1-R3)
T2 construct: endogenous in cells
T2 sequence (P54760 16-987): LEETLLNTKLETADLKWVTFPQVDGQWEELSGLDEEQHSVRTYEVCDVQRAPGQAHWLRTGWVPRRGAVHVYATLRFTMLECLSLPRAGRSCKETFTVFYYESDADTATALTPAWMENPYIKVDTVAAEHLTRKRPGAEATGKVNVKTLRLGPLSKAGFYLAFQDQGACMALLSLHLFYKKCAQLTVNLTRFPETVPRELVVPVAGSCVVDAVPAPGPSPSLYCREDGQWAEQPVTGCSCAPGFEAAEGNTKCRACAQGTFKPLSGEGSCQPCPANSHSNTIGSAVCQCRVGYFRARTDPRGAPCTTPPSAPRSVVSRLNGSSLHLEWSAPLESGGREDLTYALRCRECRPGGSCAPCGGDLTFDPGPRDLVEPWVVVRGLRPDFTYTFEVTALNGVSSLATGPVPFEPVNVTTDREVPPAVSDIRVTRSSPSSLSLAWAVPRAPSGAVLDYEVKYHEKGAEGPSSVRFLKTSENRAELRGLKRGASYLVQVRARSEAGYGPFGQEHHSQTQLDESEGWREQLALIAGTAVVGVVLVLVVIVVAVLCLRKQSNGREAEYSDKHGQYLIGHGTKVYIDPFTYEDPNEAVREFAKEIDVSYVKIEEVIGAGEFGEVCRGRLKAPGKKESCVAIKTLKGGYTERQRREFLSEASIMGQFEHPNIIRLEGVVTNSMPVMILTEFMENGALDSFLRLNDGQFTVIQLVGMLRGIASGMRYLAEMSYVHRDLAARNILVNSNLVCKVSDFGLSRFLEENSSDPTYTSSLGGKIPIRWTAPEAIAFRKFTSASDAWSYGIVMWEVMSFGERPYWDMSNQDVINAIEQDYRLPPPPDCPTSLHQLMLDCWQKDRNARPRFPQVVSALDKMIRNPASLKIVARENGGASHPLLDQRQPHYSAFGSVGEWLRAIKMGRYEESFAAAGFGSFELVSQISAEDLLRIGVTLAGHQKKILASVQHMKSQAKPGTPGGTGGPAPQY

ABL2 = target: T3, ABL2 (Homo sapiens, UniProt P42684); assay: Kinobeads two-dose competition binding: ABL2; details: read-out: Lestaurtinib Drugmatrix value, Gene Name ABL2
T3 construct: endogenous in cells
T3 sequence (P42684 whole entry): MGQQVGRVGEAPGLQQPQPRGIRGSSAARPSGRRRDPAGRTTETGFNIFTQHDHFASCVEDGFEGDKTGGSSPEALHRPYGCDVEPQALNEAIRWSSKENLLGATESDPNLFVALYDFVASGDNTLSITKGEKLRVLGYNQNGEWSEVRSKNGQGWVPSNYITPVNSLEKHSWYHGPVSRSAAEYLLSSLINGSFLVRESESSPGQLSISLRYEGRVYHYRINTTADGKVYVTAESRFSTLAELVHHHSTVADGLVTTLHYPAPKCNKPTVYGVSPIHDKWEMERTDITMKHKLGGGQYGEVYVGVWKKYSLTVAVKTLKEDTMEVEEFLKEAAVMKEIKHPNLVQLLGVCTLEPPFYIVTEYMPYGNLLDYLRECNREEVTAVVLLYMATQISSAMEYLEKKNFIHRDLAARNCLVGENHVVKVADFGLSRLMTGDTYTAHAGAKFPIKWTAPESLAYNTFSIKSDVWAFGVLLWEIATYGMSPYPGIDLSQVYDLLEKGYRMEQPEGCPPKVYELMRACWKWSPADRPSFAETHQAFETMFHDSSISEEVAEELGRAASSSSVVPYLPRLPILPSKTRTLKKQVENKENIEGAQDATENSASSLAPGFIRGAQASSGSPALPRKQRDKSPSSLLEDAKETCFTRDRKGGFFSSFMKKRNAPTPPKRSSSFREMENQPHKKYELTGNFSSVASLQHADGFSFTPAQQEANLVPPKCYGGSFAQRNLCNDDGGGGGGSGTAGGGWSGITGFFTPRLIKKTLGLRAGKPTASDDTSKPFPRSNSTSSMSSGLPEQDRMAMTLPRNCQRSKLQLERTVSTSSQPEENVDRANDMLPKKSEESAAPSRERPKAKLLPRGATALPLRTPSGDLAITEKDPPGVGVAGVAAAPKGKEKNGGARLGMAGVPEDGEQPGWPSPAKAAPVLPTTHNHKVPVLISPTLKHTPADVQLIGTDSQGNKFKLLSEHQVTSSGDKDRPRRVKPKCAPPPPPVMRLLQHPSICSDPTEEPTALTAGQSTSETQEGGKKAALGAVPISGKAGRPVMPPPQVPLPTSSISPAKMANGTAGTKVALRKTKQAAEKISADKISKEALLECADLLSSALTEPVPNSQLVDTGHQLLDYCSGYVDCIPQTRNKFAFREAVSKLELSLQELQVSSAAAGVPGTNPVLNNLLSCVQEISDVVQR

MAPKAPK2 = target: T4, MAPKAPK2 (Homo sapiens, UniProt P49137); assay: Kinobeads full dose-response competition binding: MAPKAPK2; details: Gene Name MAPKAPK2
T4 construct: endogenous in cells
T4 sequence (P49137 whole entry): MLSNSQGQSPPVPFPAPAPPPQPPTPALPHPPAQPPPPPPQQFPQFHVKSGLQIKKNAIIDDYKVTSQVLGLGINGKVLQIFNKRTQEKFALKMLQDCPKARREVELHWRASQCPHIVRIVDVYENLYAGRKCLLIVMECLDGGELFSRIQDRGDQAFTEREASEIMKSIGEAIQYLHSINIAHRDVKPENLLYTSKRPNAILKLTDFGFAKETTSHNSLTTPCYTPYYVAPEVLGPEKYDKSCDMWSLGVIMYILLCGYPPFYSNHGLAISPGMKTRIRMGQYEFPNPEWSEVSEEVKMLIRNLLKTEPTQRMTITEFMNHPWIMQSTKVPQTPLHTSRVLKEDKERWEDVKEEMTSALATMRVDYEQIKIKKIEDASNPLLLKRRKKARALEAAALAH

COc1cc(Nc2ncc3c(C)nc(-c4cc5ccccc5[nH]4)n3n2)cc(OC)c1OC [GW869516X]
number of kinases with more than 70% inhibition of binding (468 kinases; broad KINOMEscan assay covering 468 kinases, ref a previous study): 33 | KINOMEScan (468 kinases; kinase AMPK-alpha1): 89 | KINOMEScan (468 kinases; kinase AMPK-alpha2): 61 | KINOMEScan (468 kinases; kinase BLK): 60 | KINOMEScan (468 kinases; kinase CIT): 100 | KINOMEScan (468 kinases; kinase CLK1): 88 | KINOMEScan (468 kinases; kinase CLK2): 75 | KINOMEScan (468 kinases; kinase CSNK2A1): 96.4 | KINOMEScan (468 kinases; kinase CSNK2A2): 99.7 | KINOMEScan (468 kinases; kinase DDR1): 52 | KINOMEScan (468 kinases; kinase DDR2): 52 | KINOMEScan (468 kinases; kinase DYRK1A): 85 | KINOMEScan (468 kinases; kinase DYRK1B): 81 | KINOMEScan (468 kinases; kinase EPHB1): 58 | KINOMEScan (468 kinases; kinase FLT3-autoinhibited): 75 | KINOMEScan (468 kinases; kinase FLT3): 96.3 | KINOMEScan (468 kinases; kinase GCN2(Kin.Dom.2,S808G)): 88 | KINOMEScan (468 kinases; kinase HIPK1): 79 | KINOMEScan (468 kinases; kinase INSRR): 53 | KINOMEScan (468 kinases; kinase JAK1(JH2domain-pseudokinase)): 98.5 | KINOMEScan (468 kinases; kinase JAK2(JH1domain-catalytic)): 54 | KINOMEScan (468 kinases; kinase KIT): 72 | KINOMEScan (468 kinases; kinase LCK): 71 | KINOMEScan (468 kinases; kinase MAP3K4): 52 | KINOMEScan (468 kinases; kinase MEK5): 78 | KINOMEScan (468 kinases; kinase MERTK): 56 | KINOMEScan (468 kinases; kinase MLK1): 93.8 | KINOMEScan (468 kinases; kinase MLK2): 89 | KINOMEScan (468 kinases; kinase MLK3): 87 | KINOMEScan (468 kinases; kinase NEK2): 70 | KINOMEScan (468 kinases; kinase NEK3): 89 | KINOMEScan (468 kinases; kinase NEK5): 99 | KINOMEScan (468 kinases; kinase NEK6): 99.6 | KINOMEScan (468 kinases; kinase NEK7): 99.7 | KINOMEScan (468 kinases; kinase NEK9): 90 | KINOMEScan (468 kinases; kinase NEK11): 86 | KINOMEScan (468 kinases; kinase PAK3): 69 | KINOMEScan (468 kinases; kinase PIP5K1C): 89 | KINOMEScan (468 kinases; kinase PIP5K2C): 90.3 | KINOMEScan (468 kinases; kinase PKAC-beta): 51 | KINOMEScan (468 kinases; kinase RSK1(Kin.Dom.1-N-terminal)): 91.7 | KINOMEScan (468 kinases; kinase RSK3(Kin.Dom.1-N-terminal)): 66 | KINOMEScan (468 kinases; kinase SLK): 63 | KINOMEScan (468 kinases; kinase SRC): 90.1 | KINOMEScan (468 kinases; kinase STK16): 86 | KINOMEScan (468 kinases; kinase SYK): 53 | KINOMEScan (468 kinases; kinase TBK1): 58 | KINOMEScan (468 kinases; kinase TYK2(JH2domain-pseudokinase)): 82 | KINOMEScan (468 kinases; kinase ULK2): 51 | KINOMEScan (468 kinases; kinase WEE2): 85

C[C@]12O[C@H](C[C@]1(O)CO)n1c3ccccc3c3c4c(c5c6ccccc6n2c5c31)CNC4=O [Lestaurtinib]
potency estimated from few doses (ACAD11): 890 nM | potency estimated from few doses (EPHB4): 207 nM and 689 nM | potency estimated from few doses (ABL2): 340 nM

NCc1ccc(-c2nc(-c3ccncc3)c(-c3ccc(Cl)c(O)c3)[nH]2)cc1 [SB-476429-A]
Relative Intensity 0.3nM (MAPKAPK2; 0.3nM compound, DMSO = 1): 1.233 | Relative Intensity 1nM (MAPKAPK2; 1nM compound, DMSO = 1): 1.094 | Relative Intensity 3nM (MAPKAPK2; 3nM compound, DMSO = 1): 1.023 | Relative Intensity 10nM (MAPKAPK2; 10nM compound, DMSO = 1): 1.156 | Relative Intensity 30nM (MAPKAPK2; 30nM compound, DMSO = 1): 0.8314 | Relative Intensity 100nM (MAPKAPK2; 100nM compound, DMSO = 1): 0.6869 | Relative Intensity 300nM (MAPKAPK2; 300nM compound, DMSO = 1): 0.5275 | Relative Intensity 1000nM (MAPKAPK2; 1000nM compound, DMSO = 1): 0 | Kd (MAPKAPK2; EC50 with Correction, doses in nM, read-out: apparent Kd): 174 nM | EC50 (MAPKAPK2; eight-dose curve fit, doses in nM): 174 nM
